We go through four compounds from patent US4426371A, “Novel N-hydroxyalkylated dicarboxylic acid bis(3,5-dicarbamoyl-2,4,6-triiodoanilides), as X-ray contrast media” (Schering, Aktiengesellschaft, priority 1980, dated 1984).

A short description of data set [1]: Viscosity of aqueous contrast media solution. Particulars: 300 mg I/ml. It counts as physicochemical. From the text: (§1) It was surprising that, per this invention, a comparatively minor chemical modification of the class of compounds described in DOS No. 2,628,517 (U.S. Pat. No. 4,239,747) would lead to a significant improvement in compatibility and to an increase in solubility. This can be seen from Table I wherein the compound A of this invention (malonic acid bis[3,5-bis(1,3-dihydroxyisopropylcarbamoyl)-2,4,6-triiodo-N-2-hydroxyethylanilide]) is compared with respect to osmotic pressure, viscosity, and compatibility with oxalic acid bis[3,5-bis(2,3-dihydroxypropyl-N-methylcarbamoyl)-2,4,6-triiodo-anilide] (B), as well as with iopamidol (5-[α-hydroxypropionyl-amino]-2,4,6-triiodoisopthalic acid bis[1,3-dihydroxyisopropyl-amide]) and metrizamide [2-(3-acetamido-2,4,6-triiodo-5-[N-methylacetamido]benzamido)-2-deoxy-D-glucose)].
(§2) Osmotic Pressure, Viscosity, and Compatibility of Nonionic
(§3) Contrast Media of Different Chemical Structure as an Aqueous
(§4) Solution (Concentration: 300 mg I/ml)

The test system of another data set is Rat. Put plainly: Compatibility: LD50 (Rat) upon i.v. injection. The settings on record: rate 2 ml/min, aqueous solution 300 mg I/ml. It counts as in vivo. How it is done:
as §2, §3, §4
Pressure Viscosity (g Iodine/kg Body

Data set [2] can be described thus: Osmotic pressure of aqueous contrast media solution. It is filed as physicochemical. The settings on record: 300 mg I/ml.
Source text: as §1, §2, §3, §4

For data set [3] the following is noted: for angiography and myelography; background; cited from earlier work.

Take `O=C(NC(CO)CO)c1c(I)c(C(=O)NC(CO)CO)c(I)c(N(CCO)C(=O)CC(=O)N(CCO)c2c(I)c(C(=O)NC(CO)CO)c(I)c(C(=O)NC(CO)CO)c2I)c1I` [A, malonic acid bis[3,5-bis(1,3-dihydroxyisopropylcarbamoyl)-2,4,6-triiodo-N-2-hydroxyethylanilide]]: in data set [1], the “Viscosity 37° C.” value is on record as 6.8 cp. In the data set on Rat, the “LD50 (Rat) upon i.v. Injection” value is “more than 30 g Iodine/kg Body Weight”. Moreover, in data set [2], the “Osmotic Pressure 37° C.” value came to 7.2 atm.

In the case of `CN(CC(O)CO)C(=O)c1c(I)c(NC(=O)C(=O)Nc2c(I)c(C(=O)N(C)CC(O)CO)c(I)c(C(=O)N(C)CC(O)CO)c2I)c(I)c(C(=O)N(C)CC(O)CO)c1I` (centres unmarked) [B, oxalic acid bis[3,5-bis(2,3-dihydroxypropyl-N-methylcarbamoyl)-2,4,6-triiodo-anilide]], the “Viscosity 37° C.” value in data set [1] was determined as 13.7 cp. Also, the “LD50 (Rat) upon i.v. Injection” value in the data set with Rat was 13 g Iodine/kg Body Weight. Further, the “Osmotic Pressure 37° C.” value in data set [2] stood at 4.3 atm.

Regarding `C[C@H](O)C(=O)Nc1c(I)c(C(=O)NC(CO)CO)c(I)c(C(=O)NC(CO)CO)c1I` [Iopamidol, 5-[α-hydroxypropionyl-amino]-2,4,6-triiodoisopthalic acid bis[1,3-dihydroxyisopropyl-amide]], the “Viscosity 37° C.” value in data set [1] turned out to be 4.7 cp. For the same compound, the “LD50 (Rat) upon i.v. Injection” value in the data set with Rat came to 12 g Iodine/kg Body Weight. Besides, in data set [2], the “Osmotic Pressure 37° C.” value turned out to be 15.7 atm. In data set [3], the “concentrated, radiopaque solutions not hypertonic to blood or other body fluid” value was “it has not been possible to prepare solutions sufficiently concentrated and radiopaque”.

`CC(=O)Nc1c(I)c(C(=O)N[C@H]2C(O)O[C@H](CO)[C@@H](O)[C@@H]2O)c(I)c(N(C)C(C)=O)c1I` (some centres unmarked) [Metrizamide]: the “Viscosity 37° C.” value in data set [1] was found to be 6.2 cp. Besides, the “LD50 (Rat) upon i.v. Injection” value with Rat stood at 12 g Iodine/kg Body Weight. Also, the “Osmotic Pressure 37° C.” value in data set [2] was 12.3 atm. The “concentrated, radiopaque solutions not hypertonic to blood or other body fluid” value in data set [3] was “it has not been possible to prepare solutions sufficiently concentrated and radiopaque”.
